Reference: patent US10344276B2, “Diagnostic and treatment for chronic and acute phase myeloid leukemia” (Duke University, priority 2009, dated 2019)

Assays:
Msi2 transcript = assay: Msi2 knockdown measured by realtime RT-PCR; assay type: cell-based, mouse; settings: Lin− cells from NUP98-HOXA9/BCR-ABL blast crisis leukemias; compared with shLuc control
Protocol: RNA was isolated using RNAqueous-Micro (Ambion), levels were equalized, and RNA was converted to cDNA using Superscript II reverse transcriptase (Invitrogen). Quantitative real time PCRs were performed using an iCycler (BioRad) by mixing cDNAs, iQ SYBR Green Supermix (BioRad) and gene specific primers. Results were normalized to the level of beta-2-microglobulin (B2m). Primer sequences are as follows: Numb-F, […] (SEQ ID NO: 1); Numb-R, […] (SEQ ID NO: 2); Msi1-F, […] (SEQ ID NO: 3); Msi1-R, […] (SEQ ID NO: 4); Msi2-F, […] (SEQ ID NO: 5); Msi2-R, […] (SEQ ID NO: 6); B2m-F, […] (SEQ ID NO: 7); B2m-R, […] (SEQ ID NO: 8).
(§1) To determine if inhibiting Msi2 could impact the growth of established CML, and to rule out the possibility that the reduced incidence of leukemia in Gt mutants was due to developmental defects and examine if Msi2 knockdown affects AML maintenance, Msi expression was targeted using an alternate shRNA approach. A lineage-negative population was sorted from full blown AML cells, which contains AML stem cells. Lin− cells from NUP98-HOXA9/BCR-ABL-induced blast crisis leukemias were infected with either an shRNA retrovirus targeting Msi2 (shMsi; SEQ ID NO: 9) or firefly luciferase (shLuc; SEQ ID NO: 10) as a negative control and resorted, and Msi2 expression was analyzed by realtime RT-PCR. […] Error bars represent s.e.m. of triplicate PCRs (**p<0.01).

blast crisis CML / AML = assay: Transplantation of shRNA-infected blast crisis CML/AML cells into irradiated mice; assay type: in vivo
Source text: Mouse models of CML were generated by transducing bone marrow stem and progenitor cells with retroviruses carrying BCR-ABL (chronic phase), or BCR-ABL and NUP98-HOXA9 (blast crisis phase) and transplanted into irradiated recipient mice. The development of CML was confirmed by flow cytometry and histopathology. Transgenic Notch reporter (TNR), Rag1−/−, and C57BL6/J were used as transplant donors, and C57Bl6/J CD45.1 and CD1 mice were used as transplant recipients. All mice were 8-12 weeks of age. Mice were bred and maintained on acidified water after transplantation in the animal care facility at Duke University Medical Center. All live animal experiments were performed according to protocols approved by the Duke University Institutional Animal Care and Use Committee. For Msi2 knockdown experiments, lineage negative blast crisis CML cells were infected with Msi2 or control Luciferase shRNA retroviral constructs and leukemia incidence monitored.
Bone marrow c-Kit+ or KLS cells from C57BL6/J or TNR mice were enriched and cultured overnight in X-vivo15 with 10% FBS, 50 μM 2-mercaptoethanol, 100 ng/mL SCF, and 20 ng/mL TPO in a 96 well U-bottom plate or 6 well plate. Subsequently, cells were infected with MSCV-BCR-ABL-IRES-YFP (or CFP) to generate CML, or MSCV-BCR-ABL-IRES-YFP (or CFP) and MSCV-NUP98-HOXA9-IRES-YFP (or NGFR) to generate AML. Cells were harvested 48 hours after infection and transplanted retro-orbitally into groups of 4-7 recipient mice. Recipients were lethally irradiated (10 Gy) for CML, and sublethally irradiated (7 Gy) for AML. For Numb overexpression, cells were infected with either MSCV-Numb-IRES-GFP (or hCD2) or MSCV-IRES-GFP (or hCD2) along with MSCV-BCR-ABL-IRES-YFP (or CFP) and MSCV-NUP98-HOXA9-IRES-NGFR (or YFP) and 20,000 to 100,000 sorted infected cells were transplanted per mouse. For secondary transplantation, cells from primary transplanted mice were sorted for either MSCV-Numb-IRES-GFP and MSCV-NUP98-HOXA9-YFP or MSCV-IRES-GFP and MSCV-NUP98-HOXA9-YFP, and 7,000 to 8,000 cells were transplanted per mouse. For ICN experiments, cells were infected with MSCV-ICN-IRES-CFP and MSCV-BCR-ABL-GFP, MSCV-ICN-IRES-CFP and MSCV-IRES-GFP, or MSCV-BCR-ABL-IRES-GFP and MSCV-IRES-CFP, and 10,000 to 20,000 KLS-derived or 200,000 to 500,000 c-kit+-derived sorted cells were transplanted per mouse. For the TNR mouse model, cells were infected with MSCV-BCR-ABL-IRES-YFP (or CFP) to generate CML or MSCV-BCR-ABL-IRES-YFP (or CFP) and MSCV-NUP98-HOXA9-IRES-NGFR to generate AML. 10,000 to 80,000 unsorted cells were transplanted per mouse. After transplantation, recipient mice were subsequently maintained on antibiotic water (sulfamethoxazole and trimethoprim) and evaluated daily for signs of morbidity, weight loss, failure to thrive, and splenomegaly. Premorbid animals were sacrificed by CO2 asphyxiation followed by cervical dislocation. Subsequently relevant tissues were harvested and analyzed by flow cytometry and histopathology.
Data shown is representative of two to three independent experiments.
The impact of Msi2 loss in AML propagation in vivo was also tested. Lin-negative cells from full blown AML were transduced either with an Msi2 shRNA retrovirus or luciferase shRNA virus, and the cells were transplanted into sublethally-irradiated mice. 11 of 13 mice transplanted with control knockdown AML became sick by 1 month post transplant.
Serial transplants were also done to test the presence of leukemia-initiating ability of control and Msi2 knockdown AML cells from the mice who suffered from leukemia.

[1] = tested on: blast crisis CML (AML) cells; assay: Colony forming assay in methylcellulose media after Msi2 shRNA delivery; assay type: cell-based, mouse
Protocol: Lineage negative, NUP98-HOXA9-YFP positive cells from AML were sorted and infected retrovirally with either Vector-IRES-GFP or Numb-IRES-GFP. After 48 hours of infection, cells were sorted and serially plated on complete methylcellulose medium (Methocult GF M3434 from StemCell Technologies).
as §1
As a control, shRNA against LacZ was used. Error bars represent s.e.m. of triplicate PCRs (**p<0.01). […] Error bars represent s.e.m. of triplicate assay wells (**p<0.01). […] Error bars represent s.e.m. of triplicate PCRs (**p<0.01).

Q: Which results are given for “shMsi: shRNA retrovirus targeting Msi2, SEQ ID NO: 9, 5′-CCCAGATAGCCTTAGAGACTAT-3′”?
A: reduction in Msi2 transcript levels (Msi2 transcript): 75-90%; AML incidence in serial transplants (blast crisis CML / AML; 3000 or 10,000 cells transplanted): loss in AML incidence; mice surviving beyond 1 month (blast crisis CML / AML; Lin-negative AML cells transduced, sublethally irradiated mice, 11 of 13 control mice sick by 1 month): more than half; differentiation of leukemias that occurred (blast crisis CML / AML; Wright's stain of leukemic cells, primary transplant): more differentiated; ability to propagate disease (mice succumbing) (blast crisis CML / AML; mice transplanted with Lin− cells from primary shRNA expressing leukemias, control 87%): 25%; disease incidence in vivo (survival curve) (blast crisis CML / AML; primary transplant of established blast crisis CML cells, vs shLuc): reduced disease incidence in vivo; transplanted leukemic cells in peripheral blood of surviving mice (blast crisis CML / AML; surviving mice): no detectable levels of transplanted leukemic cells; colony growth in vitro ([1]; established blast crisis CML cells, vs control shRNA): reduced colony growth in vitro; reduction in the number of colonies formed ([1]; methylcellulose media, Msi2 knockdown AML cells): 50-70%
